From ChEMBL document CHEMBL1201862, “PubChem BioAssay data set” (2004)
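Growth conditions: 96-well plates. Treatment: test compound, 48 hours, 5 concentrations. Analysis: linear interpolation between bracketing concentrations; unreached endpoints set to highest concentration. Abbreviation: GI50, concentration required for 50% inhibition of growth.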 Calls of active or inactive are those of the source. No stated cut-off is given here; in the data, active = GI50 up to about 1.1 µM and inactive = higher.

How the values were obtained:
Experiment in all cases: growth of human tumour cells (NCI), 48 h
ACHN = test system: ACHN
SNB-19 = test system: SNB-19
SK-MEL-5 = test system: SK-MEL-5
UACC-257 = test system: UACC-257
OVCAR-5 = test system: OVCAR-5
SNB-75 = test system: SNB-75
SR = test system: SR
HCC 2998 = test system: HCC 2998
COLO 205 = test system: COLO 205
MCF7 = test system: MCF7
HCT-116 = test system: HCT-116
HT-29 = test system: HT-29
M14 = test system: M14
KM12 = test system: KM12
DU-145 = test system: DU-145
A549 = test system: A549
IGROV-1 = test system: IGROV-1
UACC-62 = test system: UACC-62
MDA-N = test system: MDA-N
NCI-H522 = test system: NCI-H522

SMILES	GI50 (ACHN)	GI50 (SNB-19)	GI50 (SK-MEL-5)	GI50 (UACC-257)	GI50 (OVCAR-5)	GI50 (SNB-75)	GI50 (SR)	GI50 (HCC 2998)	GI50 (COLO 205)	GI50 (MCF7)	GI50 (HCT-116)	GI50 (HT-29)	GI50 (M14)	GI50 (KM12)	GI50 (DU-145)	GI50 (A549)	GI50 (IGROV-1)	GI50 (UACC-62)	GI50 (MDA-N)	GI50 (NCI-H522)
Cc1ccc(S(=O)(=O)N(CC(O)COc2ccccc2)c2ccccc2Cl)cc1 (stereo unspecified)	16.3 µM (inactive)	18.2 µM (inactive)	14.7 µM (inactive)	14.7 µM (inactive)	23.3 µM (inactive)	22.3 µM (inactive)	13.9 µM (inactive)	19.5 µM (inactive)	16.8 µM (inactive)	20.5 µM (inactive)	14.6 µM (inactive)	17.5 µM (inactive)	16.5 µM (inactive)	14.6 µM (inactive)	28.8 µM (inactive)	11.8 µM (inactive)	12.5 µM (inactive)	8.61 µM (inactive)	16.3 µM (inactive)	12.4 µM (inactive)
CN(C1=NS(=O)(=O)N=C(N(C)c2ccccc2)O1)c1ccccc1	17.3 µM (inactive)	18.7 µM (inactive)	7.66 µM (inactive)	19.1 µM (inactive)	23.1 µM (inactive)	16.7 µM (inactive)	7.06 µM (inactive)	20.7 µM (inactive)	21.8 µM (inactive)	15 µM (inactive)	13.7 µM (inactive)	22.9 µM (inactive)	18.9 µM (inactive)	17.8 µM (inactive)	21.9 µM (inactive)	21.2 µM (inactive)	23.3 µM (inactive)	14.2 µM (inactive)	15 µM (inactive)	18.5 µM (inactive)
COc1cccc(CCn2c(N)c(-c3ccccc3)c3ccc([N+](=O)[O-])cc3c2=O)c1	5.25 µM (inactive)	16 µM (inactive)	5.93 µM (inactive)	17.3 µM (inactive)	14.3 µM (inactive)	2.99 µM (inactive)	6.61 µM (inactive)	11.1 µM (inactive)	2.16 µM (inactive)	3.46 µM (inactive)	3.3 µM (inactive)	10.6 µM (inactive)	11.2 µM (inactive)	4.36 µM (inactive)	13.7 µM (inactive)	9.62 µM (inactive)	5.6 µM (inactive)	11.9 µM (inactive)	17.5 µM (inactive)	2.93 µM (inactive)
CCNc1nc2ccccc2nc1NCC	> 100 µM (inactive)	> 100 µM (inactive)	> 100 µM (inactive)	> 100 µM (inactive)	> 100 µM (inactive)	> 100 µM (inactive)	> 100 µM (inactive)	> 100 µM (inactive)	> 100 µM (inactive)	> 100 µM (inactive)	> 100 µM (inactive)	> 100 µM (inactive)	> 100 µM (inactive)	> 100 µM (inactive)	> 100 µM (inactive)	> 100 µM (inactive)	> 100 µM (inactive)	> 100 µM (inactive)	> 100 µM (inactive)	> 100 µM (inactive)
COC(=O)CSC1CC(=O)c2c(Cl)sc(Cl)c21 (stereo unspecified)	> 100 µM (inactive)	> 100 µM (inactive)	> 100 µM (inactive)	> 100 µM (inactive)	> 100 µM (inactive)	> 100 µM (inactive)	66.2 µM (inactive)	> 100 µM (inactive)	> 100 µM (inactive)	> 100 µM (inactive)	> 100 µM (inactive)	> 100 µM (inactive)	> 100 µM (inactive)	> 100 µM (inactive)	> 100 µM (inactive)	> 100 µM (inactive)	> 100 µM (inactive)	> 100 µM (inactive)	> 100 µM (inactive)	> 100 µM (inactive)
CN(C)c1ncnc2c1ncn2CCn1cnc2c(N(C)C)ncnc21	> 100 µM (inactive)	> 100 µM (inactive)	> 100 µM (inactive)	> 100 µM (inactive)	> 100 µM (inactive)	> 100 µM (inactive)	2.28 µM (inactive)	> 100 µM (inactive)	> 100 µM (inactive)	> 100 µM (inactive)	> 100 µM (inactive)	> 100 µM (inactive)	> 100 µM (inactive)	> 100 µM (inactive)	> 100 µM (inactive)	> 100 µM (inactive)	> 100 µM (inactive)	> 100 µM (inactive)	> 100 µM (inactive)	> 100 µM (inactive)
CC1OC2/C=C\CC(O)C(C)(C)C3CCC(C)C4(O3)O[B-]35OC(C(=O)OC1C2)C1(OC(CCC1C)C(C)(C)C(O)C/C=C\C1CC(OC(=O)C4O3)C(C)O1)O5 (stereo unspecified)	3.45 µM (inactive)	2.39 µM (inactive)	2.21 µM (inactive)	1.77 µM (inactive)	7.45 µM (inactive)	0.39 µM (active)	1.78 µM (inactive)	1.66 µM (inactive)	2.03 µM (inactive)	2.01 µM (inactive)	2.01 µM (inactive)	2.75 µM (inactive)	2.11 µM (inactive)	3.07 µM (inactive)	7.96 µM (inactive)	2.55 µM (inactive)	13.9 µM (inactive)	2.01 µM (inactive)	3.15 µM (inactive)	0.344 µM (active)
COc1cccc2c1-c1ccccc1[C@H](Nc1ccccc1)[C@@]2(C)O	9.57 µM (inactive)	5.81 µM (inactive)	3.62 µM (inactive)	6.11 µM (inactive)	11.6 µM (inactive)	2.28 µM (inactive)	0.865 µM (active)	7.26 µM (inactive)	3.1 µM (inactive)	4.34 µM (inactive)	4.11 µM (inactive)	3.78 µM (inactive)	3.86 µM (inactive)	3.04 µM (inactive)	5.3 µM (inactive)	7.5 µM (inactive)	–	9.12 µM (inactive)	1.71 µM (inactive)	2.37 µM (inactive)
Cc1nc2ccc(Cl)cc2c(-n2ccnc2)c1CCn1ccnc1	15.7 µM (inactive)	53.7 µM (inactive)	20.7 µM (inactive)	18.8 µM (inactive)	21.5 µM (inactive)	20 µM (inactive)	0.678 µM (active)	49.8 µM (inactive)	18 µM (inactive)	32.3 µM (inactive)	23.8 µM (inactive)	17.3 µM (inactive)	27.8 µM (inactive)	–	31.9 µM (inactive)	34.9 µM (inactive)	26.1 µM (inactive)	16.3 µM (inactive)	25.5 µM (inactive)	22.4 µM (inactive)
COc1ccc(N2C(=O)/C(=C/c3ccc(N(CCC#N)CCC#N)cc3)N=C2c2ccccc2)c(OC)c1	> 100 µM (inactive)	> 100 µM (inactive)	> 100 µM (inactive)	> 100 µM (inactive)	> 100 µM (inactive)	89.5 µM (inactive)	22.4 µM (inactive)	> 100 µM (inactive)	> 100 µM (inactive)	61.7 µM (inactive)	69.2 µM (inactive)	> 100 µM (inactive)	> 100 µM (inactive)	35.5 µM (inactive)	> 100 µM (inactive)	–	> 100 µM (inactive)	> 100 µM (inactive)	> 100 µM (inactive)	22 µM (inactive)
CN1CCN(c2ccc3[nH]c(-c4ccc5[nH]c(-c6ccc(O)cc6)nc5c4)nc3c2)CC1	281 µM (inactive)	391 µM (inactive)	11.8 µM (inactive)	52.1 µM (inactive)	473 µM (inactive)	353 µM (inactive)	28.1 µM (inactive)	151 µM (inactive)	–	4.98 µM (inactive)	13.5 µM (inactive)	92.7 µM (inactive)	149 µM (inactive)	242 µM (inactive)	329 µM (inactive)	332 µM (inactive)	117 µM (inactive)	–	22.9 µM (inactive)	9.82 µM (inactive)
COc1cc2c(cc1OC)-c1[nH]c3ccc([N+](=O)[O-])cc3c1CC(=O)N2	2.32 µM (inactive)	6.84 µM (inactive)	1.58 µM (inactive)	8.49 µM (inactive)	3.78 µM (inactive)	2.43 µM (inactive)	0.278 µM (active)	1.04 µM (active)	0.325 µM (active)	3.59 µM (inactive)	0.472 µM (active)	3.83 µM (inactive)	5.38 µM (inactive)	0.867 µM (active)	1.68 µM (inactive)	2.46 µM (inactive)	2.39 µM (inactive)	5.4 µM (inactive)	4.48 µM (inactive)	–
CC(=O)Nc1cc(/C=C\C(=O)N2CC(CCl)c3c2cc(N)c2ccccc32)n(C)n1 (stereo unspecified)	< 0.001 µM (active)	0.0386 µM (active)	0.00269 µM (active)	0.0132 µM (active)	0.0215 µM (active)	0.00165 µM (active)	< 0.001 µM (active)	0.0148 µM (active)	0.0235 µM (active)	0.00204 µM (active)	0.00149 µM (active)	–	0.0115 µM (active)	0.0167 µM (active)	< 0.001 µM (active)	0.00614 µM (active)	0.0137 µM (active)	0.00423 µM (active)	0.0185 µM (active)	–
COc1ccccc1C1c2cc3c(cc2OC2(OC)COC(=O)C12)OCO3 (stereo unspecified)	22.2 µM (inactive)	21.2 µM (inactive)	7.19 µM (inactive)	19.7 µM (inactive)	44.1 µM (inactive)	7.16 µM (inactive)	3.8 µM (inactive)	14.9 µM (inactive)	6.56 µM (inactive)	10.3 µM (inactive)	6.98 µM (inactive)	5.28 µM (inactive)	8.2 µM (inactive)	4.92 µM (inactive)	20.4 µM (inactive)	17.4 µM (inactive)	13.1 µM (inactive)	6.04 µM (inactive)	2.24 µM (inactive)	–
